Molecular target: T1, PI3Kδ (p110δ/p85α) (Homo sapiens, UniProt O00329)
T1 construct: purchased Millipore (Bedford, Mass.)
Assay: PI3Kδ scintillation proximity assay
Format: biochemical
Conditions: 20 μM ATP, 4 nM PI3Kδ
Excerpt: Example A: PI3Kδ Scintillation Proximity Assay
Materials: [γ-^33P]ATP (10 mCi/mL) was purchased from Perkin-Elmer (Waltham, Mass.). Lipid kinase substrate, D-myo-Phosphatidylinositol 4,5-bisphosphate (PtdIns(4,5)P2)D (+)-sn-1,2-di-O-octanoylglyceryl, 3-O-phospho linked (PIP2), CAS 204858-53-7, was purchased from Echelon Biosciences (Salt Lake City, Utah). PI3Kδ (p110δ/p85α) was purchased from Millipore (Bedford, Mass.). ATP, MgCl2, DTT, EDTA, MOPS and CHAPS were purchased from Sigma-Aldrich (St. Louis, Mo.). Wheat Germ Agglutinin (WGA) YSi SPA Scintillation Beads was purchased from GE healthcare life sciences (Piscataway, N.J.).
The kinase reaction was conducted in polystyrene 384-well matrix white plate from Thermo Fisher Scientific in a final volume of 25 μL. Inhibitors were first diluted serially in DMSO and added to the plate wells before the addition of other reaction components. The final concentration of DMSO in the assay was 0.5%. The PI3K assays were carried out at room temperature in 20 mM MOPS, pH 6.7, 10 mM MgCl2, 5 mM DTT and CHAPS 0.03%. Reactions were initiated by the addition of ATP, the final reaction mixture consisted of 20 μM PIP2,20 μM ATP, 0.2 μCi [γ-^33P] ATP, 4 nM PI3Kδ. Reactions were incubated for 210 minutes and terminated by the addition of 40 μL SPA beads suspended in quench buffer: 150 mM potassium phosphate pH 8.0, 20% glycerol. 25 mM EDTA, 400 µM ATP. The final concentration of SPA beads is 1.0 mg/mL. After the plate sealing, plates were shaken overnight at room temperature and centrifuged at 1800 rpm for 10 minutes, the radioactivity of the product was determined by scintillation counting on Topcount (Perkin-Elmer). IC50 determination was performed by fitting the curve of percent control activity versus the log of the inhibitor concentration using the GraphPad Prism 3.0 software.

T1 sequence (O00329 whole entry, species assumed): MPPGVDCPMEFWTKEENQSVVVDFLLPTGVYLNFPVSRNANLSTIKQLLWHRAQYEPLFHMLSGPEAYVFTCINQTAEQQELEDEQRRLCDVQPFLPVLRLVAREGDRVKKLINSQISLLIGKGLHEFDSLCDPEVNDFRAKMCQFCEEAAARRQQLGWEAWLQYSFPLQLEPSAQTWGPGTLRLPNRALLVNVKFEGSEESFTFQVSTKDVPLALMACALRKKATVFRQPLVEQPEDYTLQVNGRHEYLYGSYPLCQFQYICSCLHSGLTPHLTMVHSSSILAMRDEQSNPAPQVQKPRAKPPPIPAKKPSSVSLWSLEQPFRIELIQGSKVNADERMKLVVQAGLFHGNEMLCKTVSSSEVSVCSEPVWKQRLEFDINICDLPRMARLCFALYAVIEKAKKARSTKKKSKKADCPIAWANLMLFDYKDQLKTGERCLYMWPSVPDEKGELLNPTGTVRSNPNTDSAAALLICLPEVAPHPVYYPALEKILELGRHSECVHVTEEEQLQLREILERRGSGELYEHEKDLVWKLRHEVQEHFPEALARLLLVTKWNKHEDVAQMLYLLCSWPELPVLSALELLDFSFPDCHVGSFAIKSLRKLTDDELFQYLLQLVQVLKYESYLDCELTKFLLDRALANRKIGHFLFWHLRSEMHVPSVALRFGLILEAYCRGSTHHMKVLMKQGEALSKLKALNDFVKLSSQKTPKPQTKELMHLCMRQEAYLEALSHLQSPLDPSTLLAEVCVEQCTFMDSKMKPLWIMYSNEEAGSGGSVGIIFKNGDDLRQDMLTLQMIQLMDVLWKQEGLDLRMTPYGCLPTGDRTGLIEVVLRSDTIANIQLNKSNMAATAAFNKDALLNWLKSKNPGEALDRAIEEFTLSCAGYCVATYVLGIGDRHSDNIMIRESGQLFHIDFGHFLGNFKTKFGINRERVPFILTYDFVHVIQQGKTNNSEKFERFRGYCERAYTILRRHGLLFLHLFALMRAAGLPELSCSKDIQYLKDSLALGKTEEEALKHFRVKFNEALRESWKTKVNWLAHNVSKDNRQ
T1 sequence (P27986 whole entry partner, species assumed): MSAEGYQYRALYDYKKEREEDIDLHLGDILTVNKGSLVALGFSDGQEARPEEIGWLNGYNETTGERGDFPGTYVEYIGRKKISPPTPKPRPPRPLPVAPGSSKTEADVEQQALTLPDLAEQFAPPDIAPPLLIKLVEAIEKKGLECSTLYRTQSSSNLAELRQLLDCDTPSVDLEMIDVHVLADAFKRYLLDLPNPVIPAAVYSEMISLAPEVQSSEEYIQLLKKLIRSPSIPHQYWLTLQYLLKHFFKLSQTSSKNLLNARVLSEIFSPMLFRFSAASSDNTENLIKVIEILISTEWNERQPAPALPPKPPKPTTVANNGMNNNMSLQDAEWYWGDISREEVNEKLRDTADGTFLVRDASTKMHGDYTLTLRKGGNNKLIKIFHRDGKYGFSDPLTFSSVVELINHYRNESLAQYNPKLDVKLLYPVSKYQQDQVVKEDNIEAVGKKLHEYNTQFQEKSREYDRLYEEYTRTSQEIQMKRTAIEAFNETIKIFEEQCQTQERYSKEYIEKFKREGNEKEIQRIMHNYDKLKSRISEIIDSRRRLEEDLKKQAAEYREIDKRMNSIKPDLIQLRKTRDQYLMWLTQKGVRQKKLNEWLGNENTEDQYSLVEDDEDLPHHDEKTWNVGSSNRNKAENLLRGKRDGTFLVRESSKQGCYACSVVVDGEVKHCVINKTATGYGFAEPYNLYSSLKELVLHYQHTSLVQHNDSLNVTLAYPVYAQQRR

First: COc1ccc(-c2c(C)c(Cl)cc(C(C)Nc3ncnc4[nH]cnc34)c2OC)cc1 (stereo not drawn) [Example 101]
Second: COc1c(C(C)Nc2ncnc3[nH]cnc23)cc(Cl)c(C)c1-c1ccc(CO)nc1 (stereo not drawn) [Example 183, (5-{3-chloro-6-methoxy-2-methyl-5-[1-(9H-purin-6-ylamino)ethyl]phenyl}pyridin-2-yl)methanol bis(2,2,2-trifluoroacetate)]
The IC50 of the first is higher: 100 to 250 nM for the first, under 50 nM for the second.

First: COc1c(-c2cnc(N)nc2)cc(Cl)cc1C(C)Nc1ncnc2[nH]cnc12 (stereo not drawn) [Example 143, N-{1-[3-(2-amino-pyrimidin-5-yl)-5-chloro-2-methoxyphenyl]-ethyl}-9H-purin-6-amine]
Second: Cc1c(Cl)cc(C(C)Nc2ncnc3[nH]cnc23)c(OCCN2CCOCC2)c1-c1ccnn1C (stereo not drawn) [Example 152, N-{1-[5-chloro-4-methyl-3-(1-methyl-1H-pyrazol-5-yl)-2-(2-morpholin-4-ylethoxy)-phenyl]-ethyl}-9H-purin-6-amine]
The IC50 of the first is higher: 100 to 250 nM for the first, under 50 nM for the second. The second is the more potent here.

Compared with `COc1c(-c2cncc(Cl)c2)cc(Cl)cc1C(C)Nc1ncnc2[nH]cnc12` (stereo not drawn) [Example 125, N-{1-[5-Chloro-3-(5-chloropyridin-3-yl)-2-methoxyphenyl]ethyl}-9H-purin-6-amine], `COc1c(C(C)Nc2ncnc3[nH]cnc23)cc(Cl)c(C)c1C1CNC1` (stereo not drawn) [Example 165, N-[1-(3-azetidin-3-yl-5-chloro-2-methoxy-4-methylphenyl)ethyl]-9H-purin-6-amine bis(trifluoroacetate)] is lower in IC50: 50 to 100 nM for the first, under 50 nM for the second. The second is the more potent here.

`CCOc1c(C(C)Nc2ncnc3[nH]cnc23)cc(Cl)c(C#N)c1C1CN(C(C)C)C1` (single isomer, unassigned) [Example 214, 6-Chloro-3-ethoxy-2-(1-isopropylazetidin-3-yl)-4-[1-(9H-purin-6-ylamino)ethyl]benzonitrile bis(trifluoroacetate)] and `COc1ncc(-c2c(C)c(Cl)cc(C(C)Nc3ncnc4[nH]cnc34)c2OCCN2CCOCC2)cc1F` (stereo not drawn) [Example 160, N-{1-[5-chloro-3-(5-fluoro-6-methoxy-pyridin-3-yl)-4-methyl-2-(2-mor-pholin-4-ylethoxy)-phenyl]-ethyl}-9H-purin-6-amine] cannot be ordered by IC50: under 50 nM for the first, under 50 nM for the second.

`CNC(=O)c1ccc(-c2c(C)c(Cl)cc(C(C)Nc3ncnc4[nH]cnc34)c2OCCN2CCOCC2)cc1Cl` (stereo not drawn) [Example 154] and `COc1c(C(C)Nc2ncnc3[nH]cnc23)cc(Cl)c(C)c1-c1ccc(C(C)(C)OC)nc1` (stereo not drawn) [Example 185, N-(1-{5-chloro-2-methoxy-3-[6-(1-methoxy-1-methylethyl)pyridin-3-yl]-4-methylphenyl}ethyl)-9H-purin-6-amine bis(2,2,2-trifluoroacetate)] cannot be ordered by IC50: under 50 nM for the first, under 50 nM for the second.

“1-{3′-chloro-3-fluoro-6′-methoxy-2′-methyl-5′-[1-(9H-purin-6-ylamino)ethyl]biphenyl-4-yl]carbonyl)piperidin-4-ol [Example 69]” and `COc1c(C(C)Nc2ncnc3[nH]cnc23)cc(Cl)c(C)c1-c1cncc(F)c1` (stereo not drawn) [Example 108, N-{1-[5-Chloro-3-(5-fluoropyridin-3-yl)-2-methoxy-4-methylphenyl]ethyl}-9H-purin-6-amine] cannot be ordered by IC50: under 50 nM for the first, under 50 nM for the second.

`COc1c(C(C)Nc2ncnc3[nH]cnc23)cc(Cl)c(F)c1CN1CCOCC1` (stereo not drawn) [Example 188, N-{1-[5-Chloro-4-fluoro-2-methoxy-3-(morpholin-4-ylmethyl)phenyl]ethyl}-9H-purin-6-amine] and `CCOc1c(C(C)Nc2ncnc3[nH]cnc23)cc(C#N)c(F)c1-c1ccc(C(=O)N(C)C)nc1` (stereo not drawn) [Example 211, 5-{3-Cyano-6-ethoxy-2-fluoro-5-[1-(9H-purin-6-ylamino)ethyl]phenyl}-N,N-dimethylpyridine-2-carboxamide bis(trifluoroacetate)] cannot be ordered by IC50: under 50 nM for the first, under 50 nM for the second.

`COc1ccc(-c2c(C)c(Cl)cc(C(C)Nc3ncnc4[nH]cnc34)c2OCCN2CCOCC2)cc1OC` (stereo not drawn) [Example 153, N-{1-[5-chloro-3′,4′-dimethoxy-6-methyl-2-(2-mor-pholin-4-ylethoxy)-biphenyl-3-yl]ethyl}-9H-purin-6-amine] gave an IC50 of under 50 nM.

— US9815839B2, “N-(1-(substituted-phenyl)ethyl)-9H-purin-6-amines as PI3K inhibitors” (Incyte Corporation, priority 2010, dated 2017)
